Data published in US5506215A, “1-(3'-fluoro-2',3'-dideoxy-β-D-ribofuranosyl)-5-substituted pyrimidine nucleosides” (Medivir AB, priority 1987, dated 1996).
Where “and” joins values, the source holds several entries; their conditions need not be identical. Identical values can stand only once. Like-named read-outs stand apart in the source and are kept apart here.

Tests used:
HIV [1] = test: Inhibition of HIV multiplication in cell culture, H9 cells (Koshida et al. method); type: cell-based; conditions: for inhibition at 0.1 µg/mL: Human immunodeficiency virus 1, H9, 0.1 μg/ml; for inhibition at 10 µg/mL: Human immunodeficiency virus 1, H9, 10 μg/ml; for inhibition at 1 µg/mL: Human immunodeficiency virus 1, H9, 1 μg/ml
Text: The activity against human immunodeficiency virus (HIV) has been tested for the compounds listed and the resulting activities are shown in the Table below.
The data in the Table were gathered and tests performed as described by Koshida et el., "Inhibition of Human Immunodeficiency Virus in vitro by Combination of 3'-Azido-3'-Deoxythymidine and Foscarnet" in Antimicrob Agents and Chemotherapy, Vol 33 (1989) p. 778-780 (on H9 cells for compounds X-XII) and by De Clercq et el, Nucleosides and Nucleotides, Vol 8 (1989) p. 659-671 (on MT4 cells, literature data for compounds XIV-XVI).

[2] = Test II, cellular toxicity, H9 cells; type: cell-based; conditions: human, read-out: % inhibition of cell multiplication
Experimental: H9 cells, 2×10^7 cells per plate, are incubated in […] medium containing 10% fetal calf serum, 70 mg/l penicillin, 100 mg/l streptomycin and 10 mM hepes, in absence or presence of test compounds. The number of cells per plate is determined after 48 h. Cells incubated in the absence of test compounds then underwent two cell division cycles.
(§1) F5000 cells, which are human embryo cells, 1×10^5 cells per plate, are incubated in Eagle's minimal essential medium, supplemented with Earle's salts, non-essential amino acids, 10% fetal calf serum, 10 mM hopes, 70 mg/l penicillin and 100 mg/l streptomycin, in absence or presence of test compounds. The number of cells per plate is determined after 48 h. Cells incubated in the absence of test compounds underwent one cell division cycle.

HIV (HTLV-IIIB) = test: Test I, effect of compounds on HIV in H9 cells (HIV antigen containing cells); type: cell-based; conditions: read-out: Concentration for 50% inhibition (IC50) of human immuno deficiency virus multiplication in cell culture
Experimental: Materials and methods: HIV infection of H9 cells
H9 cells, 10^5 cells per well on a 24 well plate, suspended in 2 ml RPMI-medium containing 10% fetal calf serum, 100 μg/ml penicillin, 10 μg/ml streptomycin sulfate and 2μg/ml polybrene are exposed to HIV (HTLV-IIIB) and different concentrations of the test compounds. The plates are incubated at 37° C. in 5% CO2 for 6-7 days. The contents in each well is then homogenized with a pipette and transferred to a centrifuge tube. After centrifugation for 10 min at 1500 rpm the supernatant is removed and the cell pellet is analyzed by fixing in methanol on glass plates. Human HIV positive serum diluted 1:80 or 1:160 is added and incubated for 30 min at 37° C. The plate is then washed with phosphate-buffered saline (PBS) containing Ca^2+ and Mg^2+. Sheep antihuman conjugate (FITC) is added and after a new incubation the plate is again washed with PBS. Contrast staining is done with Evans blue and after drying the frequency of HIV antigen containing cells is determined in a microscope.

[3] = Test II, cellular toxicity, F5000 cells; type: cell-based; conditions: human, read-out: % inhibition of cell multiplication
Experimental: as §1

HIV [4] = conditions: MT4 cells, literature data, cited from earlier work
[5] = Human immunodeficiency virus 1, 6-7 days

Q: Which results are given for `CO[C@H]1[C@H](F)[C@@H](CO)O[C@H]1n1cc(C)c(=O)[nH]c1=O` [Example X, 1-(3'-fluoro-2'-methoxy-2',3'-dideoxy-β-D-arabinofuranosyl)thymine]?
A: % Inhibition of HIV multiplication (HIV [1]; 10 μg/ml): 83% and 79%; inhibition at 0.1 µg/mL (HIV [1]): 58%; inhibition at 10 µg/mL (HIV [1]): 85%

Q: Which results are given for `CO[C@H]1[C@H](N=[N+]=[N-])[C@@H](CO)O[C@H]1n1cc(C)c(=O)[nH]c1=O` [Example XI, 1-(3'-azido-2'-methoxy-2',3'-dideoxy-β-D-arabinofuranosyl)thymine]?
A: % Inhibition of HIV multiplication (HIV [1]; 0.1 μg/ml): 32%; % Inhibition of HIV multiplication (HIV [1]; 1 μg/ml): 38%; inhibition at 0.1 µg/mL (HIV [1]): 27%; inhibition at 1 µg/mL (HIV [1]): 21%

Q: What does the source list for `C#C[C@H]1C[C@H](n2cc(C)c(=O)[nH]c2=O)O[C@@H]1CO` [Example XII, 1-[2,3-Dideoxy-3-C-ethynyl-β-D-erythro-pentofuranosyl]thymine]?
A: inhibition at 1 µg/mL (HIV [1]): 18%; inhibition at 10 µg/mL (HIV [1]): 54%

Q: For `CCCc1cn([C@H]2C[C@H](F)[C@@H](CO)O2)c(=O)[nH]c1=O` [VSA 408, 1-(3'-F-2',3'-dideoxy-β-ribofuranosyl)-5-propyl-uracil], which inhibition at 48 h, 250 µM ([2]; 250 μM) is on record?
A: 15%

Q: And the IC50 (HIV (HTLV-IIIB); [5])?
A: 1000 nM

Q: And the inhibition at 48 h, 100 µM [3]?
A: 0%

Q: With `CCc1cn([C@H]2C[C@H](F)[C@@H](CO)O2)c(=O)[nH]c1=O` [VSA 410, 1-(3'-F-2',3'-dideoxy-β-D-ribofuranosyl)-5-ethyl-uracil] as the compound, how does the inhibition at 48 h, 100 µM ([2]; 100 μM) read?
A: 25%

Q: What about the IC50 (HIV (HTLV-IIIB); [5]) of the same compound?
A: < 1000 nM

Q: And the inhibition at 48 h, 100 µM [3]?
A: 25%

Q: Which IC50 (HIV (HTLV-IIIB); [5]) does the source give for `O=c1ccn([C@H]2C[C@H](F)[C@@H](CO)O2)c(=O)[nH]1` [VSA 417, 1-(3'-F-2',3'-dideoxy-β-D-ribofuranosyl)-uracil] here?
A: 500 nM

Q: What about the inhibition at 48 h, 100 µM [3] of the same compound?
A: 10%

Q: For `CC(=O)OC[C@H]1O[C@@H](n2cc(C)c(=O)[nH]c2=O)C[C@@H]1F` [VSB 423, 1-(5'-acetyl-3'-fluoro-2',3'-dideoxy-β-D-ribofuranosyl)-5-methyluracil], which IC50 (HIV (HTLV-IIIB); 6-7 days) is on record?
A: < 10 nM

Q: With `O=c1[nH]c(=O)n([C@H]2C[C@H](F)[C@@H](CO)O2)cc1Br` [XIV, 5-bromo-1-(3'-fluoro-2',3'-dideoxy-β-D-ribofuranosyl)uracil] as the compound, how does the “% Inhibition of HIV multiplication” value (HIV [4]; 0.1 μg/ml) read?
A: 50%

Q: With `O=c1[nH]c(=O)n([C@H]2C[C@H](F)[C@@H](CO)O2)cc1I` [XV, 5-iodo-1-(3'-fluoro-2',3'-dideoxy-β-D-ribofuranosyl)uracil] as the compound, how does the “% Inhibition of HIV multiplication” value (HIV [4]; 0.1 μg/ml) read?
A: 50%

Q: With `O=c1[nH]c(=O)n([C@H]2C[C@H](F)[C@@H](CO)O2)cc1Cl` [XVI] as the compound, how does the “% Inhibition of HIV multiplication” value (HIV [4]; 0.04 μg/ml) read?
A: 50%
